Results taken from US8791108B2, “Inhibitors of human immunodeficiency virus replication” (priority 2011, dated 2014).
Like-named read-outs stand apart in the source and are kept apart here.

Tested on: recombinant NL-Rluc virus
Assay: Inhibition of HIV replication (NL-RLuc luciferase reporter virus, MT-2 cells)
Type: cell-based
Settings: Human immunodeficiency virus 1, MT2, 120 h

In the case of `Cc1nc2cc(C(=O)NCc3ccc(F)c(C(F)F)c3)nn2c(-c2cc(F)c3c(c2C)CCCO3)c1[C@H](OC(C)(C)C)C(=O)O` [Example 27], the EC50 (read-out: Activity) is reported as under 0.1 µM.
Work on `Cc1nc2cc(C(=O)NCc3ccc(F)cc3S(C)(=O)=O)nn2c(-c2cc(F)c3c(c2C)CCCO3)c1[C@H](OC(C)(C)C)C(=O)O` [Example 28, (2S)-2-(tert-butoxy)-2-(2-((4-fluoro-2-(methylsulfonyl)benzyl)carbamoyl)-7-(8-fluoro-5-methylchroman-6-yl)-5-methylpyrazolo[1,5-a]pyrimidin-6-yl)acetic acid] yielded an EC50 (read-out: Activity) of 0.1 to 1 µM.
For `COc1cc(F)ccc1CNC(=O)c1cc2nc(C)c([C@H](OC(C)(C)C)C(=O)O)c(-c3cc(F)c4c(c3C)CCCO4)n2n1` [Example 29, (2S)-2-(tert-butoxy)-2-(2-((4-fluoro-2-methoxybenzyl)carbamoyl)-7-(8-fluoro-5-methylchroman-6-yl)-5-methylpyrazolo[1,5-a]pyrimidin-6-yl)acetic acid], the EC50 (read-out: Activity) was under 0.1 µM.
With `CNC(=O)c1cc(F)ccc1CNC(=O)c1cc2nc(C)c([C@H](OC(C)(C)C)C(=O)O)c(-c3cc(F)c4c(c3C)CCCO4)n2n1` [Example 30, (2S)-2-(tert-butoxy)-2-(2-((4-fluoro-2-(methylcarbamoyl)benzyl)carbamoyl)-7-(8-fluoro-5-methylchroman-6-yl)-5-methylpyrazolo[1,5-a]pyrimidin-6-yl)acetic acid] the EC50 (read-out: Activity) was 0.1 to 1 µM and the EC50 (read-out: EC50 μM) was 3.2 µM.
Compound `CCCCc1ccc(CNC(=O)c2cc3nc(C)c([C@H](OC(C)(C)C)C(=O)O)c(-c4cc(F)c5c(c4C)CCCO5)n3n2)cc1` [Example 31, (2S)-2-(tert-butoxy)-2-(2-((4-butylbenzyl)carbamoyl)-7-(8-fluoro-5-methylchroman-6-yl)-5-methylpyrazolo[1,5-a]pyrimidin-6-yl)acetic acid] has an EC50 (read-out: Activity) of under 0.1 µM.
`Cc1ccc(CN(C)C(=O)c2cc3nc(C)c([C@H](OC(C)(C)C)C(=O)O)c(-c4cc(F)c5c(c4C)CCCO5)n3n2)cc1` [Example 32, (2S)-2-(tert-butoxy)-2-(7-(8-fluoro-5-methylchroman-6-yl)-5-methyl-2-(methyl(4-methylbenzyl)carbamoyl)pyrazolo[1,5-a]pyrimidin-6-yl)acetic acid] showed an EC50 (read-out: Activity) of under 0.1 µM.
For `Cc1nc2cc(C(=O)N(C)Cc3ccccc3)nn2c(-c2cc(F)c3c(c2C)CCCO3)c1[C@H](OC(C)(C)C)C(=O)O` [Example 33, (2S)-2-(2-(benzyl(methyl)carbamoyl)-7-(8-fluoro-5-methylchroman-6-yl)-5-methylpyrazolo[1,5-a]pyrimidin-6-yl)-2-(tert-butoxy)acetic acid], the EC50 (read-out: Activity) was under 0.1 µM.
With `Cc1nc2cc(C(=O)NCc3ccc4c(c3)OCO4)nn2c(-c2cc(F)c3c(c2C)CCCO3)c1[C@H](OC(C)(C)C)C(=O)O` [Example 34, (2S)-2-(2-((benzo[d][1,3]dioxol-5-ylmethyl)carbamoyl)-7-(8-fluoro-5-methylchroman-6-yl)-5-methylpyrazolo[1,5-a]pyrimidin-6-yl)-2-(tert-butoxy)acetic acid] the EC50 (read-out: Activity) was under 0.1 µM.
In the case of `COc1cc(CNC(=O)c2cc3nc(C)c([C@H](OC(C)(C)C)C(=O)O)c(-c4cc(F)c5c(c4C)CCCO5)n3n2)ccc1F` [Example 35, (2S)-2-(tert-butoxy)-2-(2-((4-fluoro-3-methoxybenzyl)carbamoyl)-7-(8-fluoro-5-methylchroman-6-yl)-5-methylpyrazolo[1,5-a]pyrimidin-6-yl)acetic acid], the EC50 (read-out: Activity) is reported as under 0.1 µM.
In the case of `Cc1nc2cc(C(=O)NCc3ncc(F)cc3F)nn2c(-c2cc(F)c3c(c2C)CCCO3)c1[C@H](OC(C)(C)C)C(=O)O` [Example 36, (2S)-2-(tert-butoxy)-2-(2-(((3,5-difluoropyridin-2-yl)methyl)carbamoyl)-7-(8-fluoro-5-methylchroman-6-yl)-5-methylpyrazolo[1,5-a]pyrimidin-6-yl)acetic acid], the EC50 (read-out: Activity) is reported as 0.1 to 1 µM and the EC50 (read-out: EC50 μM) is reported as 0.255 µM.
